Measurements reported in patent US6605639B1, “Ligands of nuclear receptor” (Nuclear Receptor Research, Ltd., priority 1998, dated 2003).

Legend:
RAR = target: T1, RAR (Homo sapiens, UniProt P10276); experiment: RAR reporter gene (luciferase) transfer assay in COS-1 cells; format: cell-based; settings: control lot = 1
T1 construct: expressed in transfected cells; host or cells: COS-1 cells
T1 sequence (P10276 1-462): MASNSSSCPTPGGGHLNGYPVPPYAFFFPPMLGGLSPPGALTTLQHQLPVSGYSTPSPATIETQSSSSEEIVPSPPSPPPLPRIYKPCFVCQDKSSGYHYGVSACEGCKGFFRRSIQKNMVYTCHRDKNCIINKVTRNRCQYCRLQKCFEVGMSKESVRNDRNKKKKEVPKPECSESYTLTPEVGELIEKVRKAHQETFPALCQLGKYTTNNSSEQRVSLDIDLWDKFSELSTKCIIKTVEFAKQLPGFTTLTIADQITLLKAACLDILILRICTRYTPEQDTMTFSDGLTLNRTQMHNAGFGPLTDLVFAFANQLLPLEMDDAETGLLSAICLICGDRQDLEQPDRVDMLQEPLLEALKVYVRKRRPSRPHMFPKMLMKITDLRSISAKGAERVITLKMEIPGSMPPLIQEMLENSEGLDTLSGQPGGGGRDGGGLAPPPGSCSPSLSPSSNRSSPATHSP
From the text: Each value means the degree of increase in the luciferase activity, which is expressed by referring the luciferase activity in the control lot as to 1, caused by the addition of the corresponding compound.
As a substitute for a plasmid containing a luciferase gene under the regulation in expression by RXR response element (pRXRL:RXRE-SV40 luciferase), and the RXRα expression plasmid (pRXRα); a plasmid containing a luciferase gene under the regulation in expression by RXR response element (pRARL:RASE-SV40 luciferase), and a […] (pRARα) were transferred into COS-1 cells. Transfectants with these plasmids and the compound of the present invention (concentration: 10^−4 to 10^−7 M) were added to the culture.
(§1) After sucking off the medium from the Petri dish, […] of a cultured cell lysing solution (25 mM Tris phosphate buffer (pH 7.8), 2 mM 1,2-diaminocyclohexane-N, N,N′,N′-tetraacetate, 10% glycerol, 1% Triton X-100) was added and the cells were peeled off with a rubber policeman and collected. After completely disrupting the cells by freezing and melting, the cells were centrifuged at 4° C. (15,000 rpm, 2 min) and the supernatant thus obtained was employed as a sample for measurement. To 20 ml of the supernatant, 100 ml of a luciferase substrate solution (2.14 mg of Co-A, 100 ml of 470 mM D-Luciferin, 200 ml of 530 mM ATP, 2 ml of DTT-Tricine buffer (pH 7.8)) was added and the fluorescence intensity was measured with a luminometer (ATTO Luminosensor AB-2000). To measure the β-galactosidase for determining the gene transfer efficiency, using a Luminescent β-galactosidase detection kit II (Clontech), fluorescence intensity was measured by a luminometer.

[1] = tested on: rats given streptozotocin; experiment: Relief of onset of streptozotocin-induced diabetes; format: in vivo, rat; settings: male SD rats, streptozotocin 50 mg/kg i.v.; 10 mg/kg/day oral, 14 days from 24 hours after; Mean ± SE
Experimental: Eighteen male Wistar rats weighing about 200 g were divided into 3 groups at random. To the animals of 2 groups, 45 mg/kg of streptozotocin was intravenously administered. One of these groups was regarded as a control group, while the other was regarded as the Compound-6 administration group. To the remaining 1 group which was regarded as the normal control group, a 1/10 M citrate buffer (pH 3.5) […] was intravenously administered. Immediately after the administration of streptozotocin, a suspension of Compound-6 in acacia was orally administered once a day continuously for 10 days in a dose of 20 mg/kg/day. To other groups, an acacia solution alone was administered. After fasting for 6 hours after the final administration, blood was collected from the heart of each animal and the blood glucose level and the blood insulin level were measured. As the data given in Table 7a show, the oral administration of Compound-6 inhibited an increase in the blood glucose level and a decrease in the blood insulin level.
Eighteen male SD rats weighing about 250 g were divided into 3 groups at random. […] To the normal control group and the streptozotocin control group, the acacia solution alone was administered orally. After fasting for 6 hours after the final administration, blood was collected from the heart of each animal and the blood glucose level and the blood insulin level were measured. As the data given in Table 7b show, the oral administration of Compound-5 inhibited an increase in the blood glucose level and a decrease in the blood insulin level.

male ICR and ddY mice = experiment: Serum total cholesterol lowering effect in mice; format: in vivo, mouse; settings: 8 days; for Serum total cholesterol, % change: vs control; for Serum total cholesterol: Mean±SE
From the text: Effect of serum cholesterol lowering agents varies among animals. Namely, some agents which are effective on a certain animal exert […] on others. For example, compactin, which is an HMG CoA reductase inhibitor, cannot lower the serum total cholesterol level when administered to rodents such as rat or mouse. This is because even though HMG CoA reductase is inhibited in the rodent liver, the enzyme is biosynthesized in an amount in excess of that for compensating the inhibition so that the inhibitory effect is negated. Accordingly, it is favorable to calibrate the effect of lowering serum total cholesterol level in as many animals as possible. Concerning the effect of the compounds of the present invention on the serum total cholesterol level, an assay was made with the use of mice. After adding these compounds to a standard powdery feed for rat and mouse, the resultant mixtures were molded into pellets and given for 8 days to male ICR and ddY mice aged 5 weeks. In the afternoon of the day 8, the blood of each animal was collected from the heart and the total cholesterol in the serum was determined. The doses were determined as the maximum dose, in which body weight gain was not suppressed after orally administering for 1 week, and as the ¼ dose thereof.
Each value is represented in Mean±SE (n=10). a) In the case of Compound-1, the control group consisted of 23 animals while the 0.04% and 0.01% groups each consisted of 12 animals.

male Wistar rats [2] = experiment: Oral administration of Compound-5 to rats: toxicity and Compound-1 in the blood
Experimental: Male Wistar rats (n=4) weighing about 200 g were employed and the concentration of Compound-1 contained in the serum was expressed in mean±SE (FIG. 9).
In FIG. 9, open circles show a case wherein Compound-5 was solubilized with HCO-60 and orally administered in a dose of 2 mg/kg.
Solid circles show a case wherein Compound-5 was suspended in an acacia solution and orally administered in a dose of 20 mg/kg. Per part of the serum collected with the passage of time, ethanol containing 1% of acetic acid was added and the mixture was allowed to stand in the dark at room temperature for 7 days. Then Compound-1 was determined by high performance liquid chromatography.
Open squares show a case wherein Compound-5 was suspended in an acacia solution and orally administered. Then the blood was collected at definite points and Compound-1 was determined by high performance liquid chromatography immediately thereafter. […] Separately, Compound-5 suspended in an acacia solution was orally administered to rats having been cannulated into the portal vein. Then the portal blood was collected with the passage of time and Compound-1 was determined.

human RXRα = target: T2, human RXRα (Homo sapiens, UniProt P19793); experiment: RXR reporter gene (luciferase) transfer assay in COS-1 cells; format: cell-based; settings: 2 × 10^−5 M
T2 construct: expressed in transfected cells; host or cells: COS-1 cells
T2 sequence (P19793 1-462): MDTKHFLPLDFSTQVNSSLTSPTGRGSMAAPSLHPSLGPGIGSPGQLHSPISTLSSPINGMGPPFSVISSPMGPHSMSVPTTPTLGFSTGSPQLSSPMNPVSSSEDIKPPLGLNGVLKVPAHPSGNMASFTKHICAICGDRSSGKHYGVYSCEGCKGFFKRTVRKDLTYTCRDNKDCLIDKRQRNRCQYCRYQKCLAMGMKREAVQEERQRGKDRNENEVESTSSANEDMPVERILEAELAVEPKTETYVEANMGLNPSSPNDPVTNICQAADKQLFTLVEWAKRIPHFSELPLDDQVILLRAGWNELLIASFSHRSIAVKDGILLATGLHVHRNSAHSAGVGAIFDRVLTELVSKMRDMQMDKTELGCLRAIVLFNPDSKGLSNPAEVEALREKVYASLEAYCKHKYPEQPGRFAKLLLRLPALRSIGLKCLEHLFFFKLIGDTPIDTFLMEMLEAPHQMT
Experimental: A plasmid containing a reporter gene regulated in expression by RXR response element and an RXRα expression plasmid were transferred into COS-1 cells. Then these cells were treated with the compounds of the present invention such as ascochlorin.
Plasmids were transferred into COS-1 cells. Gene transfer was carried out in a conventional manner with the use of Lipofect AMINE reagent (Life Technologies). 1×10^5 cells were dispersed in 2 ml of Dulbecco's modified Eagle medium (DMEM) containing 10% of fetal calf serum and poured into a 35 mm Petri dish. After culturing in a CO2 incubator for 17 hours, the medium was removed and the cells adhering to the Petri dish were washed with phosphate-buffered saline (PBS). Then gene transfer was carried out by using Lipofect AMINE reagent. Namely, 500 ml of a minimum serum medium OptiMEM (Life Technologies) containing […] of a plasmid containing a luciferase gene under the regulation in expression by RXR response element (PRXRL: RXRE-SV40 luciferase; a reporter gene plasmid wherein RXRE has been ligated to SV40 promoter and luciferase cDNA, under the regulation in expression thereby, has been located downstream thereof); […] of an RXRα expression plasmid (pRXRα; a plasmid wherein human RXRα CDNA has been ligated to the downstream of a cytomegalovirus promoter to express human RXRα in mammalian cells); and 2 mg of a β-galactosidase gene plasmid to assess the gene transfer ratio (pCH110; Pharmacia) were pre-mixed with 500 ml of OptiMEM containing 50 ml of Lipofec AMINE, and the resultant mixture was maintained at room temperature for 15 minutes. 100 ml of this liquid mixture was mixed with 400 ml of OptiMEM, and the medium mixture was divided to the Petri dish. After maintaining in a CO2 incubator at 37° C. for 3 hours, the gene transfer medium was sucked off from the Petri dish and DMEM medium containing a test substance and 10% of serum (activated carbon-treated) was added thereto followed by culturing at 37° C. for 20 hours. […] Further, dimethyl sulfoxide (final concentration: 0.1%) was added as the solvent for the test substance.
as §1

[3] = tested on: hereditary obese diabetic mice ob/ob and db/db; settings: oral; cited from earlier work
white rabbits = experiment: Inhibition of arteriosclerosis in white rabbits fed high fat feed; settings: 0.2% in high fat feed, 14 weeks
Experimental: Thus, a high fat feed was prepared by adding 10% of hardened coconut oil, 2% of cholesterol, 0.5% of bovine bile powder and 0.04% or 0.01% of ascochlorin to a powdery marketed standard white rabbit feed and molded the mixture into pellets. Separately, another high fat feed for the control group was prepared without using ascochlorin.
Twenty-four white rabbits weighing about 2 kg were divided into 4 groups at random. One of these groups was regarded as the control group, while the remaining 3 groups were respectively regarded as the clofibrate group, the ascochlorin 0.01% group and the ascochlorin 0.04% group at random. Then the experiment was carried out for 14 weeks.

male Wistar rats [4] = experiment: Sterol balance and bile acid excretion in rats; format: in vivo, rat; settings: High cholesterol feed
Experimental: Feed-origin cholesterol and neutral sterol and acidic sterol in the feces of rats, to which the compounds of the present invention had been administered, were determined to monitor sterol balance and changes in the bile acid composition in feces. […] Further, the bile was sampled with the passage of time from rats having been subjected to cholangiostomy and bile acids thereof were determined. […] Male Wistar rats weighting about 250 g were divided into groups each having 6 to 8 animals. […] […] The feces were collected on the days 6 and 10. Then sterols were extracted therefrom in a conventional manner, acidic sterols and neutral sterols were determined. On the other hand, cholesterol in the feed was also determined so as to calculate the amount of feed-origin sterol.

## CC1=C(/C=C/C(C)=C/C=C/C(C)=C/C(=O)O)C(C)(C)CCC1 [All-trans retinoic acid, reference compound]
RAR; 10^−7 M
  degree of increase in the luciferase activity, RAR vector: 46

## CC(=O)Oc1c(Cl)c(C)c(C=O)c(O)c1CC=C(C)C=CC1(C)C(C)CCC(=O)C1C (centres unmarked) [Compound-5, acetylASC]
[1]
  Blood glucose: 237.2 ± 26.31 mg/dL
  Serum IRI: 15.5 ± 2.16 mU/ml
Male ICR and ddY mice; 0.01% in feed
  Serum total cholesterol, % change: −13%
  Serum total cholesterol: 132 ± 6.1 mg/dL
Male ICR and ddY mice; 0.04% in feed
  Serum total cholesterol, % change: −27%
  Serum total cholesterol: 117 ± 3.3 mg/dL
Male Wistar rats [2]; 2 mg/kg oral, solubilized with HCO-60, n=4
  time within which all of the rats died following administration: ≤ 1 h
Male Wistar rats [2]; rat, suspended in a 2% acacia solution, 200 mg/kg
  lethality: not killed
Male Wistar rats [2]; suspended in acacia solution, oral, determined immediately by HPLC
  free Compound-1 in the blood after administration of Compound-5: no free Compound-1 was detected

## COc1c(C=O)c(C)c(Cl)c(O)c1CC=C(C)C=CC1(C)C(C)CCC(=O)C1C (centres unmarked) [Compound-10, 2-O-methylASC]
Human RXRα
  fold increase in luciferase reporter activity (control = 1): 1.45
Human RXRα; control lot = 1
  degree of increase in the luciferase activity, RXR vector: 58
RAR; 2 × 10^−5 M
  degree of increase in the luciferase activity, RAR vector: 40
Male ICR and ddY mice; 0.01% in feed
  Serum total cholesterol, % change: −30%
  Serum total cholesterol: 130 ± 4.5 mg/dL
Male ICR and ddY mice; 0.04% in feed
  Serum total cholesterol, % change: −34%
  Serum total cholesterol: 122 ± 3.0 mg/dL

## Cc1cc2c(cc1C1(c3ccc(C(=O)O)cn3)CC1)C(C)(C)CCC2(C)C [LG100268]
[3]
  blood glucose levels, serum neutral fat levels and serum insulin levels: drastically lower

## CCOC(=O)C(C)(C)Oc1ccc(Cl)cc1 [clofibrate, reference compound]
White rabbits
  animals died from circulatory insufficiency due to obstruction in the coronary artery: 2 animals among six

## COc1c(Cl)c(C)c(C=O)c(OC)c1CC=C(C)C=CC1(C)C(C)CCC(=O)C1C (centres unmarked) [compound 7, 2,4-dimethylASC]
Male ICR and ddY mice; 0.04% in feed
  Serum total cholesterol, % change: −31%
  Serum total cholesterol: 120 ± 5.9 mg/dL

## CC(/C=C/C1(C)C(C)CCC(=O)C1C)=C\Cc1c(O)c(C=O)c(C)c(Cl)c1OCCCC(=O)O (centres unmarked) [compound 16]
Male Wistar rats [4]; administration 5 days
  Sterol balance: +15.12 mg/day
  Sterol in feces, Acidic sterol: 8.67 mg/day
  Sterol in feces, Cholesterol: 246.30 mg/day
  Sterol in feces, Coprosterol: 41.05 mg/day
  excretion increase: 8.95 mg/day
Male Wistar rats [4]; administration 10 days
  Sterol balance: +28.52 mg/day
  Sterol in feces, Acidic sterol: 9.93 mg/day
  Sterol in feces, Cholesterol: 233.08 mg/day
  Sterol in feces, Coprosterol: 58.27 mg/day
  excretion increase: 34.07 mg/day

## CC(/C=C/[C@@]1(C)[C@H](C)CCC(=O)[C@@H]1C)=C\Cc1c(O)c(C=O)c(C)c(Cl)c1OC(=O)c1cccnc1 [compound 19, 4-O-nicotinoylASC]
Male ICR and ddY mice; 0.01% in feed
  Serum total cholesterol, % change: −13%
  Serum total cholesterol: 91 ± 4.5 mg/dL
Male ICR and ddY mice; 0.04% in feed
  Serum total cholesterol, % change: −16%
  Serum total cholesterol: 88 ± 3.0 mg/dL
